The structures appear in SMILES notation.

The test system of the data set is Artemia salina. Kind of data set: Toxicity in Artemia salina after 24 hrs. In kind it is organism-based. Particulars: in vivo.
With `C#C/C=C\CCCCCCCCCCCCCC/C=C\CC/C=C\C#CC(O)C#CCCCC/C=C\CCCCCC/C=C/C(O)C#C` (centres undefined) [ISOPETROFORMYNE 4], the LD50 is recorded as 0.6 ppm.

Consider `C#C/C=C\CCCCCCCCCCCCCC/C=C\CCCCC#CC(O)C#CCCCC/C=C\CCCCCC/C=C/C(=O)C#C` (centres undefined), for which the LD50 is recorded as 0.5 ppm.

As for `C#CCCCCCCCCCCCCCCCC/C=C\CC/C=C\C#CC(O)C#CCCCC/C=C\CCCCCC/C=C/C(O)C#C` (centres undefined) [ISOPETROFORMYNE 3], the LD50 amounted to 0.26 ppm.

In the case of `C#CC(=O)/C=C/CC/C=C\CCCC/C=C\CCC#CC(O)C#C/C=C/CC/C=C\CCCCCCCCCCCCC/C=C/C(=O)C#C` (centres undefined), the LD50 stood at 5 ppm.

`C#CCCCCCCCCCCCCCCCC/C=C\CC/C=C/C#CC(=O)C#CCCCC/C=C\CCCCCC/C=C/C(O)C#C` (centres undefined) returned an LD50 of 1 ppm.

As to `C#CC(=O)/C=C/CC/C=C\CCCC/C=C\CCC#CC(O)C#C/C=C/CC/C=C\CCCCCCCCCCCCC/C=C/C(O)C#C` (centres undefined) [PETROFORMYNE 8], the LD50 was found to be 0.77 ppm.

In turn, `C#CCCCCCCCCCCCCCCCC/C=C\CC/C=C\C#CC(O)C#CCCCC/C=C\CCCCCCCCC(O)C#C` (centres undefined) returned an LD50 of 6.8 ppm.

`C#CCCCCCCCCCCCCCCCC/C=C\CCCCC#CC(=O)C#CCCCC/C=C\CCCCCC/C=C/C(O)C#C` (centres undefined) showed an LD50 of 6.3 ppm.

In turn, `C#CC(=O)/C=C/CCCCCC/C=C\CCCCC#CC(O)C#C/C=C/CC/C=C\CCCCCCCCCCCCC/C=C/C(=O)C#C` (centres undefined) came in with an LD50 of 0.18 ppm.

The values are drawn from ChEMBL document CHEMBL1159246, “Further Structural Studies on the Petroformynes” (J Nat Prod, 1995).
